Activity calls are given as the source filed them. The calls are words filed in the database; no cut-off is given here. Where a SMILES comes first, the peptide text is derived from it. [ ]: non-standard residue; d: D form. βAla = NCCC(=O)O
Each compound was assayed on Monoclonal antibody (mAb) 3E7 (assay: Affinity towards anti-beta-endorphin MAb(Clone 3-E7) using [3H][Leu5]-enkephalin as labeled ligand at 10 uM concentration; not active).
For `CC(C)C[C@H](N)C(=O)N[C@@H](Cc1ccc(O)cc1)C(=O)NCC(=O)NCC(=O)N[C@@H](Cc1ccccc1)C(=O)O` (H-LYGGF-OH), the Activity was “inactive”.
In the case of `CSCC[C@H](N)C(=O)N[C@@H](Cc1ccc(O)cc1)C(=O)NCC(=O)NCC(=O)N[C@@H](Cc1ccccc1)C(=O)O` (H-MYGGF-OH), the Activity is reported as “inactive”.
In the case of `NC(=O)C[C@H](N)C(=O)N[C@@H](Cc1ccc(O)cc1)C(=O)NCC(=O)NCC(=O)N[C@@H](Cc1ccccc1)C(=O)O` (H-NYGGF-OH), the Activity is reported as “inactive”.
For `CC(C)C[C@H](NC(=O)[C@H](CC(C)C)NC(=O)CNC(=O)[C@H](Cc1ccc(O)cc1)NC(=O)[C@@H](N)CCCN=C(N)N)C(=O)O` (H-RYGLL-OH), the Activity was “inactive”.
In the case of `C[C@H](NC(=O)CNC(=O)[C@@H](N)Cc1ccc(O)cc1)C(=O)N[C@@H](Cc1ccccc1)C(=O)N[C@@H](Cc1ccccc1)C(=O)O` (H-YGAFF-OH), the Activity is reported as “inactive”.
`CC[C@H](C)[C@H](NC(=O)[C@H](Cc1ccccc1)NC(=O)[C@H](C)NC(=O)CNC(=O)[C@@H](N)Cc1ccc(O)cc1)C(=O)O` (H-YGAFI-OH) was tested, and the Activity was “inactive”.
In the case of `CSCC[C@H](NC(=O)[C@H](Cc1ccccc1)NC(=O)[C@H](C)NC(=O)CNC(=O)[C@@H](N)Cc1ccc(O)cc1)C(=O)O` (H-YGAFM-OH), the Activity is reported as “inactive”.
With `C[C@H](NC(=O)CNC(=O)[C@@H](N)Cc1ccc(O)cc1)C(=O)N[C@@H](Cc1ccccc1)C(=O)N[C@@H](CCC(N)=O)C(=O)O` (H-YGAFQ-OH) the Activity was “inactive”.
For `C[C@H](NC(=O)CNC(=O)[C@@H](N)Cc1ccc(O)cc1)C(=O)N[C@@H](Cc1ccccc1)C(=O)N[C@H](C(=O)O)[C@@H](C)O` (H-YGAFT-OH), the Activity was “inactive”.
In the case of `CC(C)C[C@H](NC(=O)[C@H](C)NC(=O)CNC(=O)[C@@H](N)Cc1ccc(O)cc1)C(=O)N[C@H](C(=O)O)[C@@H](C)O` (H-YGALT-OH), the Activity is reported as “inactive”.
With `C[C@H](NC(=O)CNC(=O)[C@@H](N)Cc1ccc(O)cc1)C(=O)N[C@@H](Cc1c[nH]c2ccccc12)C(=O)N[C@@H](CC(=O)O)C(=O)O` (H-YGAWD-OH) the Activity was “inactive”.
In the case of `C[C@H](NC(=O)[C@H](CCC(=O)O)NC(=O)CNC(=O)[C@@H](N)Cc1ccc(O)cc1)C(=O)N[C@@H](Cc1ccccc1)C(=O)O` (H-YGEAF-OH), the Activity is reported as “inactive”.
With `NC(=O)CC[C@H](NC(=O)[C@H](Cc1ccccc1)NC(=O)[C@H](Cc1ccccc1)NC(=O)CNC(=O)[C@@H](N)Cc1ccc(O)cc1)C(=O)O` (H-YGFFQ-OH) the Activity was “inactive”.
For `CC[C@H](C)[C@H](NC(=O)[C@H](Cc1ccccc1)NC(=O)CNC(=O)CNC(=O)[C@@H](N)Cc1ccc(O)cc1)C(=O)O` (H-YGGFI-OH), the Activity was “inactive”.
For `NC(=O)CC[C@H](NC(=O)[C@H](Cc1ccccc1)NC(=O)CNC(=O)CNC(=O)[C@@H](N)Cc1ccc(O)cc1)C(=O)O` (H-YGGFQ-OH), the Activity was “inactive”.
`N[C@@H](Cc1ccc(O)cc1)C(=O)NCC(=O)NCC(=O)NCC(=O)N[C@@H](Cc1ccccc1)C(=O)O` (H-YGGGF-OH) was tested, and the Activity was “inactive”.
With `C[C@H](NC(=O)[C@H](Cc1c[nH]cn1)NC(=O)CNC(=O)[C@@H](N)Cc1ccc(O)cc1)C(=O)N[C@@H](Cc1ccccc1)C(=O)O` (H-YGHAF-OH) the Activity was “inactive”.
`CC(C)C[C@H](NC(=O)CNC(=O)[C@@H](N)Cc1ccc(O)cc1)C(=O)NCC(=O)N[C@@H](Cc1ccccc1)C(=O)O` (H-YGLGF-OH) was tested, and the Activity was “inactive”.
In the case of `CSCC[C@H](NC(=O)CNC(=O)[C@@H](N)Cc1ccc(O)cc1)C(=O)NCC(=O)N[C@@H](Cc1ccccc1)C(=O)O` (H-YGMGF-OH), the Activity is reported as “inactive”.
With `NC(=O)C[C@H](NC(=O)CNC(=O)[C@@H](N)Cc1ccc(O)cc1)C(=O)N[C@@H](Cc1ccccc1)C(=O)N[C@@H](Cc1ccccc1)C(=O)O` (H-YGNFF-OH) the Activity was “inactive”.
`N[C@@H](Cc1ccc(O)cc1)C(=O)NCC(=O)N1CCC[C@H]1C(=O)NCC(=O)N[C@@H](Cc1ccccc1)C(=O)O` (H-YGPGF-OH) was tested, and the Activity was “inactive”.
In the case of `CC(C)[C@H](NC(=O)[C@H](Cc1ccccc1)NC(=O)[C@H](CCC(N)=O)NC(=O)CNC(=O)[C@@H](N)Cc1ccc(O)cc1)C(=O)O` (H-YGQFV-OH), the Activity is reported as “inactive”.
`CC(C)[C@H](NC(=O)CNC(=O)[C@@H](N)Cc1ccc(O)cc1)C(=O)N[C@@H](Cc1ccccc1)C(=O)N[C@@H](C)C(=O)O` (H-YGVFA-OH) was tested, and the Activity was “inactive”.
For `CC(C)[C@H](NC(=O)CNC(=O)[C@@H](N)Cc1ccc(O)cc1)C(=O)N[C@@H](Cc1ccccc1)C(=O)N[C@@H](CCC(=O)O)C(=O)O` (H-YGVFE-OH), the Activity was “inactive”.
With `CC[C@H](C)[C@H](NC(=O)[C@H](Cc1ccccc1)NC(=O)[C@@H](NC(=O)CNC(=O)[C@@H](N)Cc1ccc(O)cc1)C(C)C)C(=O)O` (H-YGVFI-OH) the Activity was “inactive”.
`CC(C)[C@H](NC(=O)CNC(=O)[C@@H](N)Cc1ccc(O)cc1)C(=O)N[C@@H](Cc1ccccc1)C(=O)N[C@@H](CCC(N)=O)C(=O)O` (H-YGVFQ-OH) was tested, and the Activity was “inactive”.
In the case of `N[C@@H](Cc1ccc(O)cc1)C(=O)NCC(=O)N[C@@H](Cc1c[nH]c2ccccc12)C(=O)N[C@@H](Cc1ccccc1)C(=O)N[C@@H](Cc1c[nH]cn1)C(=O)O` (H-YGWFH-OH), the Activity is reported as “inactive”.
For `NC(=O)C[C@H](NC(=O)[C@H](Cc1ccccc1)NC(=O)[C@H](Cc1c[nH]c2ccccc12)NC(=O)CNC(=O)[C@@H](N)Cc1ccc(O)cc1)C(=O)O` (H-YGWFN-OH), the Activity was “inactive”.
In the case of `NC(=O)CC[C@H](NC(=O)[C@H](Cc1ccccc1)NC(=O)[C@H](Cc1c[nH]c2ccccc12)NC(=O)CNC(=O)[C@@H](N)Cc1ccc(O)cc1)C(=O)O` (H-YGWFQ-OH), the Activity is reported as “inactive”.
In the case of `CSCC[C@H](NC(=O)[C@H](Cc1c[nH]c2ccccc12)NC(=O)[C@H](Cc1c[nH]c2ccccc12)NC(=O)CNC(=O)[C@@H](N)Cc1ccc(O)cc1)C(=O)O` (H-YGWWM-OH), the Activity is reported as “inactive”.
With `N[C@@H](Cc1ccc(O)cc1)C(=O)NCC(=O)N[C@@H](Cc1ccc(O)cc1)C(=O)N[C@@H](Cc1ccccc1)C(=O)N[C@@H](Cc1ccccc1)C(=O)O` (H-YGYFF-OH) the Activity was “inactive”.
For `NC(=O)CC[C@H](NC(=O)[C@H](Cc1c[nH]c2ccccc12)NC(=O)[C@H](Cc1ccc(O)cc1)NC(=O)CNC(=O)[C@@H](N)Cc1ccc(O)cc1)C(=O)O` (H-YGYWQ-OH), the Activity was “inactive”.
For `NCCCC[C@H](NC(=O)[C@@H](N)Cc1ccc(O)cc1)C(=O)NCC(=O)NCC(=O)N[C@@H](Cc1ccccc1)C(=O)O` (H-YKGGF-OH), the Activity was “inactive”.
With `CC(C)C[C@H](NC(=O)[C@@H](N)Cc1ccc(O)cc1)C(=O)NCC(=O)NCC(=O)N[C@@H](Cc1ccccc1)C(=O)O` (H-YLGGF-OH) the Activity was “inactive”.
For `NC(=O)CC[C@H](NC(=O)[C@@H](N)Cc1ccc(O)cc1)C(=O)NCC(=O)NCC(=O)N[C@@H](Cc1ccccc1)C(=O)O` (H-YQGGF-OH), the Activity was “inactive”.
`CC(C)C[C@H](NC(=O)[C@H](Cc1ccccc1)NC(=O)CNC(=O)CNC(=O)[C@@H](N)Cc1ccc(O)cc1)C(=O)O` [ENKEPHALIN] was tested, and the Activity was “inactive”.

What follows are compounds tested on Monoclonal antibody (mAb) 3E7 (assay: Affinity towards anti-beta-endorphin MAb(Clone 3-E7) using [3H][Leu5]-enkephalin as labeled ligand).
With `NC(=O)CC[C@H](NC(=O)[C@H](Cc1ccccc1)NC(=O)CNC(=O)CNC(=O)[C@@H](N)Cc1ccccc1)C(N)=O` (H-FGGFQ-NH2) the IC50 was 40.1 nM.
Compound `NC(=O)CC[C@H](NC(=O)[C@H](Cc1ccccc1)NC(=O)CNC(=O)CNC(=O)[C@@H](N)Cc1ccccc1)C(=O)O` (H-FGGFQ-OH) has an IC50 of 15 nM.
In the case of `NC(=O)CCNC(=O)[C@H](CCC(N)=O)NC(=O)[C@H](Cc1ccccc1)NC(=O)CNC(=O)CNC(=O)[C@@H](N)Cc1ccccc1` (H-FGGFQ[βAla]-NH2), the IC50 is reported as 45.4 nM.
Compound `NC(=O)CC[C@H](NC(=O)[C@H](Cc1ccccc1)NC(=O)CNC(=O)CNC(=O)[C@@H](N)Cc1ccccc1)C(=O)NCCC(=O)O` (H-FGGFQ[βAla]-OH) has an IC50 of 39.4 nM.
In the case of `CC(C)C[C@H](NC(=O)[C@H](C)NC(=O)CNC(=O)[C@@H](N)Cc1ccc(O)cc1)C(=O)N[C@@H](CCC(N)=O)C(N)=O` (H-YGALQ-NH2), the IC50 is reported as 2910 nM.
In the case of `CC(C)C[C@H](NC(=O)[C@H](C)NC(=O)CNC(=O)[C@@H](N)Cc1ccc(O)cc1)C(=O)N[C@@H](CCC(N)=O)C(=O)NCCC(N)=O` (H-YGALQ[βAla]-NH2), the IC50 is reported as 2870 nM.
`CC(C)C[C@H](NC(=O)[C@H](C)NC(=O)CNC(=O)[C@@H](N)Cc1ccc(O)cc1)C(=O)N[C@@H](CCC(N)=O)C(=O)NCCC(=O)O` (H-YGALQ[βAla]-OH) gave an IC50 of 1470 nM.
Work on `C[C@H](NC(=O)[C@H](Cc1ccccc1)NC(=O)CNC(=O)CNC(=O)[C@@H](N)Cc1ccc(O)cc1)C(N)=O` (H-YGGFA-NH2) yielded an IC50 of 72 nM.
With `C[C@H](NC(=O)[C@H](Cc1ccccc1)NC(=O)CNC(=O)CNC(=O)[C@@H](N)Cc1ccc(O)cc1)C(=O)NCCC(N)=O` (H-YGGFA[βAla]-NH2) the IC50 was 93.6 nM.
Compound `C[C@H](NC(=O)[C@H](Cc1ccccc1)NC(=O)CNC(=O)CNC(=O)[C@@H](N)Cc1ccc(O)cc1)C(=O)NCCC(=O)O` (H-YGGFA[βAla]-OH) has an IC50 of 82.3 nM.
Work on `CC(C)C[C@H](NC(=O)[C@H](Cc1ccccc1)NC(=O)CNC(=O)CNC(=O)[C@@H](N)Cc1ccc(O)cc1)C(=O)N[C@@H](C)C(N)=O` (H-YGGFLA-NH2) yielded an IC50 of 13.7 nM.
In the case of `CC(C)C[C@H](NC(=O)[C@H](Cc1ccccc1)NC(=O)CNC(=O)CNC(=O)[C@@H](N)Cc1ccc(O)cc1)C(=O)N[C@@H](C)C(=O)O` (H-YGGFLA-OH), the IC50 is reported as 17.1 nM.
Work on `C[C@@H](O)[C@H](NC(=O)[C@H](Cc1ccccc1)NC(=O)CNC(=O)CNC(=O)[C@@H](N)Cc1ccc(O)cc1)C(N)=O` (H-YGGFT-NH2) yielded an IC50 of 65.2 nM.
Work on `C[C@@H](O)[C@H](NC(=O)[C@H](Cc1ccccc1)NC(=O)CNC(=O)CNC(=O)[C@@H](N)Cc1ccc(O)cc1)C(=O)NCCC(N)=O` (H-YGGFT[βAla]-NH2) yielded an IC50 of 43.3 nM.
Compound `C[C@@H](O)[C@H](NC(=O)[C@H](Cc1ccccc1)NC(=O)CNC(=O)CNC(=O)[C@@H](N)Cc1ccc(O)cc1)C(=O)NCCC(=O)O` (H-YGGFT[βAla]-OH) has an IC50 of 50.6 nM.
With `CC(C)C[C@H](NC(=O)CNC(=O)CNC(=O)[C@@H](N)Cc1ccc(O)cc1)C(=O)N[C@@H](CO)C(N)=O` (H-YGGLS-NH2) the IC50 was 991 nM.
`CC(C)C[C@H](NC(=O)CNC(=O)CNC(=O)[C@@H](N)Cc1ccc(O)cc1)C(=O)N[C@@H](CO)C(=O)NCCC(N)=O` (H-YGGLS[βAla]-NH2) showed an IC50 of 1150 nM.
Work on `CC(C)C[C@H](NC(=O)CNC(=O)CNC(=O)[C@@H](N)Cc1ccc(O)cc1)C(=O)N[C@@H](CO)C(=O)NCCC(=O)O` (H-YGGLS[βAla]-OH) yielded an IC50 of 916 nM.

— ChEMBL document CHEMBL1150994, “The chemical synthesis of large random peptide libraries and their use for the discovery of ligands for macromolecular acceptors” (Bioorg Med Chem Lett, 1993)
